Assay [1] relates to maize seeds. Briefly: Germination of maize seeds, comparison of surfactants (Examples 13-19). The format is in vivo. To be noted: maize seeds immersed 1 h in 0.75% solution. As to the method:
The treatment of the maize seeds consists of immersing them 1 h in a solution comprising water alone (control batch) or in a solution composed of 98.25% water and 0.75% of a polyol derivative non-ionic surfactant (treated batch, Sub4). The seeds are next dried in a heating tunnel at 45° C. for one hour. Two batch repetitions of 16 seeds are deposited on Petri dishes containing a medium composed of 2% Agar Agar and 98% water. The Petri dishes are kept at ambient temperature and in darkness. Each day the number of seeds that have germinated (having a radicle) is counted. The treatment of the maize seeds consists of immersing them 1 h in a solution comprising water alone (control batch) or in a solution composed of 98.25% water and 0.75% of a polyol derivative non-ionic surfactant (treated batch, Sub1). The seeds are next dried in a heating tunnel at 45° C. for one hour. Two batch repetitions of 16 seeds are deposited on Petri dishes containing a medium composed of 2% Agar Agar and 98% water. The Petri dishes are kept at ambient temperature and in darkness. Each day the number of seeds that have germinated (having a radicle) is counted. The treatment of the maize seeds consists of immersing them 1 h in a solution comprising water alone (control batch) or in a solution composed of 98.25% water and 0.75% of a polyol derivative non-ionic surfactant (treated batch, Sub7). The seeds are next dried in a heating tunnel at 45° C. for one hour. Two batch repetitions of 16 seeds are deposited on Petri dishes containing a medium composed of 2% Agar Agar and 98% water. The Petri dishes are kept at ambient temperature and in darkness. Each day the number of seeds that have germinated (having a radicle) is counted. The treatment of the maize seeds consists of immersing them 1 h in a solution comprising water alone (control batch) or in a solution composed of 98.25% water and 0.75% of a polyol derivative non-ionic surfactant (treated batch, Sub2). The seeds are next dried in a heating tunnel at 45° C. for one hour. Two batch repetitions of 16 seeds are deposited on Petri dishes containing a medium composed of 2% Agar Agar and 98% water. The Petri dishes are kept at ambient temperature and in darkness. Each day the number of seeds that have germinated (having a radicle) is counted. The treatment of the maize seeds consists of immersing them 1 h in a solution comprising water alone (control batch) or in a solution composed of 98.25% water and 0.75% of a polyol derivative non-ionic surfactant (treated batch, Sub3). The seeds are next dried in a heating tunnel at 45° C. for one hour. Two batch repetitions of 16 seeds are deposited on Petri dishes containing a medium composed of 2% Agar Agar and 98% water. The treatment of the maize seeds consists of immersing them 1 h in a solution comprising water alone (control batch) or in a solution composed of 98.25% water and 0.75% of a polyol derivative non-ionic surfactant (treated batch, Sub6). The seeds are next dried in a heating tunnel at 45° C. for one hour. Two batch repetitions of 16 seeds are deposited on Petri dishes containing a medium composed of 2% Agar Agar and 98% water. The treatment of the maize seeds consists of immersing them 1 h in a solution comprising water alone (control batch) or in a solution composed of 98.25% water and 0.75% of a polyol derivative non-ionic surfactant (treated batch, Sub5). The seeds are next dried in a heating tunnel at 45° C. for one hour. Two batch repetitions of 16 seeds are deposited on Petri dishes containing a medium composed of 2% Agar Agar and 98% water. The Petri dishes are kept at ambient temperature and in darkness. Each day the number of seeds that have germinated (having a radicle) is counted.

The test system of assay [2] is Aspergillus niger. Put plainly: Fungicide effect by antibiogram type method. The format is cell-based. To be noted: positive control. An excerpt:
In order to evaluate any impact of the sugar esters used according to the invention on microorganisms, the fungicide effect was searched for by an antibiogram type method. The method consists of: • spreading a solution contaminated with the mold Aspergillus niger on the surface of a Petri dish containing glucose gel growth medium with chloramphenicol. • arrange 4 sterile antibiogram disks of 6 mm diameter per Petri dish. • inoculate with 3 drops (0.071 g) of solution to test or control solution per disk. The dishes are next placed in the incubator at 25° C. for 5 days. Measurement of the inhibitory diameter is carried out every day.

In the case of `CCCCCCCCCCO[C@@H]1O[C@H](CO)[C@@H](O)[C@H](O)[C@H]1O` [decyl glucoside, Decyl glucoside], the germination rate amounted to 19% in assay [1] (D1) and 84% in assay [1] (D2).

For the molecule Glucose stearate, the germination rate in assay [1] (D1) stood at 34%; in assay [1] (D2) it was 78%.

In the case of `Fc1ccc([C@]2(Cn3cncn3)O[C@H]2c2ccccc2Cl)cc1` (racemic) [Epoxiconazole, reference compound], the Inhibitory diameter is listed as 0 mm in assay [2] (D1); 32 mm in assay [2] (D2); 30 mm in assay [2] (D3); 30 mm in assay [2] (D4); 29 mm in assay [2] (D5).

Turning to Methylglucose dioleate, the germination rate in assay [1] (D1) is 18%; in assay [1] (D2) it was 65%.

For the molecule Sorbitan laurate, the germination rate in assay [1] (D1) stood at 31%; in assay [1] (D2) it was 78%.

Take Polyethoxylated sorbitan laurate: the germination rate in assay [1] (D1) was 25%; in assay [1] (D2), 78%.

As for Sucrose palmitate, the germination rate is recorded as 28% in assay [1] (D1) and 78% in assay [1] (D2).

Regarding `CCCCCCCCCCCC(=O)N(C)C[C@H](O)[C@@H](O)[C@H](O)[C@H](O)CO` [N-lauroyl-N-methyl glucamide], the results for the germination rate in assay [1] (D1) and in assay [1] (D2) were 28% and 65%, respectively.

The record behind these values is US20200236933A1, “USE OF A NON-IONIC SURFACTANT WHICH IS A POLYOL DERIVATIVE AS A PLANT GROWTH STIMULATING AGENT OR AS AN ADJUVANT” (priority 2017, published 2020).
